The values that follow come from US20260250290A1 (BRISTOL-MYERS SQUIBB COMPANY, priority 2023, published 2026).

Structures can show the parent of a compound that is named as a salt.

In this experiment the target is T1, full length SGK1 (Homo sapiens, UniProt O00141).
T1 construct: 125 μM full length SGK1 (Life Technologies Part #PR7358A); purchased Life Technologies PR7358A
T1 sequence (O00141 1-431): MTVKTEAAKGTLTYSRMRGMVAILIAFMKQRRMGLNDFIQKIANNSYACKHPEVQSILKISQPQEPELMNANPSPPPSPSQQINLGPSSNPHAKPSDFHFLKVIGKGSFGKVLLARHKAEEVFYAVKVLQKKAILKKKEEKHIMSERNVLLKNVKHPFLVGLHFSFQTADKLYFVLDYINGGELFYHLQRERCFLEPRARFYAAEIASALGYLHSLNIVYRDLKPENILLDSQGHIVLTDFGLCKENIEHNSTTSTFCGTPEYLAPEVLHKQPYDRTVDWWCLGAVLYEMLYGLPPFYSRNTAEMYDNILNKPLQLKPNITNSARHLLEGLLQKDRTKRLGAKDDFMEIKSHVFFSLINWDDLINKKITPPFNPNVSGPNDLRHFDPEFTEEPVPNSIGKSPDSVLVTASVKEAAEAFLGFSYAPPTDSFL
Put plainly: SGK1 inhibition Assay A (Caliper LabChip electrophoretic separation of fluorescent peptide substrate and phosphorylated product). The experiment is classed as biochemical. The settings on record: Assay A; 20 μM ATP, 40 min incubation; read-out: SGK1 IC50.
By IC50 is commonly meant the concentration at which inhibition is half-maximal. Turning to `CN(C)CCOc1c(C(=O)N[C@@H]2CCCN(c3cc(-c4ccnc(C#N)c4)n4ncnc(N)c34)C2)[nH]c2ccccc12` [Example 366, (R)-N-(1-(4-amino-7-(2-cyanopyridin-4-yl)pyrrolo[2,1-f][1,2,4]triazin-5-yl)piperidin-3-yl)-3-(2-(dimethylamino)ethoxy)-1H-indole-2-carboxamide], the IC50 worked out at 32 nM.
The same measure for `CC(=O)N1CC=C(c2cc(N3CCC[C@@H](NC(=O)c4ccccc4N(C)C)C3)c3c(N)ncnn23)C1` [Example 470, (R)-N-(1-(7-(1-acetyl-2,5-dihydro-1H-pyrrol-3-yl)-4-aminopyrrolo[2,1-f][1,2,4]triazin-5-yl)piperidin-3-yl)-2-(dimethylamino)benzamide]: 75 nM; for `CC(=O)N1CC=C(c2cc(N3CCC[C@@H](NC(=O)c4sc(Cl)cc4OC4CCN(C)CC4)C3)c3c(N)ncnn23)C1` [Example 579, (R)-N-(1-(7-(1-acetyl-2,5-dihydro-1H-pyrrol-3-yl)-4-aminopyrrolo[2,1-f][1,2,4]triazin-5-yl)piperidin-3-yl)-5-chloro-3-((1-methylpiperidin-4-yl)oxy)thiophene-2-carboxamide]: 4 nM; for `COC(=O)N1CC=C(c2cc(N3CCC[C@@H](NC(=O)c4sc(Cl)cc4OCCN4CC(OC)C4)C3)c3c(N)ncnn23)C1` [Example 290]: 21 nM.
The same measure for `CN(C)CCn1c(C(=O)N[C@@H]2CCCN(c3cc(-c4ccc(C#N)nc4)n4ncnc(N)c34)C2)cc2ccccc21` [Example 506, (R)-N-(1-(4-amino-7-(6-cyanopyridin-3-yl)pyrrolo[2,1-f][1,2,4]triazin-5-yl)piperidin-3-yl)-1-(2-(dimethylamino)ethyl)-1H-indole-2-carboxamide]: 886 nM.
With `Cc1cc(-c2cc(N3CCC[C@@H](NC(=O)c4ccc(Cl)s4)C3)c3c(N)ncnn23)ccn1` [Example 132, N-[(3R)-1-[4-amino-7-(2-methylpyridin-4-yl)pyrrolo[2,1-f][1,2,4]triazin-5-yl]piperidin-3-yl)-5-chlorothiophene-2-carboxamide] the figure was 4 nM.
For the compound `COc1cc(C(=O)N[C@@H]2CCCN(c3cc(-c4ccncc4)n4ncnc(N)c34)C2)ccn1` [Example 127, N-[(3R)-1-[4-amino-7-(pyridin-4-yl)pyrrolo[2,1-f][1,2,4]triazin-5-yl]piperidin-3-yl]-2-methoxypyridine-4-carboxamide], the half-inhibitory concentration (IC50) worked out at 5 nM.
The same measure for `C#Cc1cccc(C(=O)N[C@@H]2CCCN(c3cc(-c4ccc(S(C)(=O)=O)cc4)n4ncnc(N)c34)C2)c1` [Example 34, (R)-N-(1-(4-amino-7-(4-(methylsulfonyl)phenyl)pyrrolo[2,1-f][1,2,4]triazin-5-yl)piperidin-3-yl)-3-ethynylbenzamide]: 24 nM.
With `CC(C)(C)OC(=O)N1CC=C(c2ccc(C(=O)N[C@@H]3CCCN(c4cc(-c5ccnc(C(F)F)c5)n5ncnc(N)c45)C3)s2)C1` [Example 546, tert-butyl (R)-3-(5-((1-(4-amino-7-(2-(difluoromethyl)pyridin-4-yl)pyrrolo[2,1-f][1,2,4]triazin-5-yl)piperidin-3-yl)carbamoyl)thiophen-2-yl)-2,5-dihydro-1H-pyrrole-1-carboxylate] the figure was 29 nM; with `CN(C)CCOc1cc(Cl)sc1C(=O)N[C@@H]1CCCN(c2cc(-c3ccc(C(N)=O)c(F)c3)n3ncnc(N)c23)C1` [Example 164, (R)-N-(1-(4-amino-7-(4-carbamoyl-3-fluorophenyl)pyrrolo [2,1-f][1,2,4]triazin-5-yl)piperidin-3-yl)-5-chloro-3-(2-(dimethylamino)ethoxy)thiophene-2-carboxamide, 2 TFA], 2 nM.
With `CC(=O)Nc1ccc(C(=O)N[C@@H]2CCCN(c3cc(C4=CCN(C(C)=O)C4)n4ncnc(N)c34)C2)cc1` [Example 466, (R)-4-acetamido-N-(1-(7-(1-acetyl-2,5-dihydro-1H-pyrrol-3-yl)-4-aminopyrrolo[2,1-f][1,2,4]triazin-5-yl)piperidin-3-yl)benzamide] the figure was 50 nM; with `CS(=O)(=O)c1ccc(-c2cc(N3CCC[C@@H](NC(=O)c4cccc(C(F)(F)F)c4)C3)c3c(N)ncnn23)cc1` [Example 24, (R)-N-(1-(4-amino-7-(4-(methylsulfonyl)phenyl)pyrrolo[2,1-f][1,2,4]triazin-5-yl)piperidin-3-yl)-3-(trifluoromethyl) benzamide], 41 nM; with “(R)-N-(1-(4-amino-7-(1-(isoxazole-3-carbonyl)-2,5-dihydro-1H-pyrrol-3-yl)pyrrolo[2,1-f|[1,2,4]triazin-5-yl)piperidin-3-y1)-5-chloro-3-(2-(dimethylamino)ethoxy)thiophene-2-carboxamide [Example 906]”, 1 nM.
As for `Cc1ccc(C(=O)N[C@@H]2CCCN(c3c(Br)c(-c4ccc(S(C)(=O)=O)cc4)n4ncnc(N)c34)C2)s1` [Example 194, N-[(3R)-1-[4-amino-6-bromo-7-(4-methanesulfonylphenyl)pyrrolo[2,1-f][1,2,4]triazin-5-yl]piperidin-3-yl]-5-methylthiophene-2-carboxamide], the IC50 was found to be 188 nM.
With `CN(C)CCOc1cc(C2CC2)sc1C(=O)N[C@@H]1CCCN(c2cc(-c3ccc(C#N)nc3)n3ncnc(N)c23)C1` [Example 372, (R)-N-(1-(4-amino-7-(6-cyanopyridin-3-yl)pyrrolo[2,1-f][1,2,4]triazin-5-yl)piperidin-3-yl)-5-cyclopropyl-3-(2-(dimethylamino)ethoxy) thiophene-2-carboxamide] the figure was 2 nM.
The same measure for `CC(=O)c1ccc(-c2cc(N3CCC[C@@H](NC(=O)c4cccc(N5CCN(C)CC5)n4)C3)c3c(N)ncnn23)cc1` [Example 801, (R)-N-(1-(7-(4-acetylphenyl)-4-aminopyrrolo[2,1-f][1,2,4]triazin-5-yl)piperidin-3-yl)-6-(4-methylpiperazin-1-yl)picolinamide]: 26 nM.
With `C=Cc1cc(C)sc1C(=O)N[C@@H]1CCCN(c2cc(-c3ccnc(F)c3)n3ncnc(N)c23)C1` [Example 169, (R)—N-(1-(4-amino-7-(2-fluoropyridin-4-yl)pyrrolo[2,1-f][1,2,4]triazin-5-yl)piperidin-3-yl)-5-methyl-3-vinylthiophene-2-carboxamide] the figure was 12 nM; with `CC(=O)N1CC=C(c2cc(N3CCC[C@@H](NC(=O)c4snnc4C)C3)c3c(N)ncnn23)C1` [Example 473, (R)-N-(1-(7-(1-acetyl-2,5-dihydro-1H-pyrrol-3-yl)-4-aminopyrrolo[2,1-f][1,2,4]triazin-5-yl)piperidin-3-yl)-4-methyl-1,2,3-thiadiazole-5-carboxamide], 107 nM.
On to `CN(C)CCOc1cc(C(F)F)sc1C(=O)N[C@@H]1CCCN(c2cc(-c3cncnc3)n3ncnc(N)c23)C1` [Example 307, (R)-N-(1-(4-amino-7-(pyrimidin-5-yl)pyrrolo[2,1-f] [1,2,4]triazin-5-yl)piperidin-3-yl)-5-(difluoromethyl)-3-(2-(dimethylamino)ethoxy)thiophene-2-carboxamide], for which the half-inhibitory concentration (IC50) worked out at 27 nM.
With `Nc1ncnn2c(-c3ccnc(C(F)F)c3)cc(N3CCC[C@@H](NC(=O)c4sc(Cl)cc4O)C3)c12` [Example 481, (R)-N-(1-(4-amino-7-(2-(difluoromethyl)pyridin-4-yl)pyrrolo[2,1-f][1,2,4]triazin-5-yl)piperidin-3-yl)-5-chloro-3-hydroxythiophene-2-carboxamide], the 50% inhibitory concentration (IC50) was found to be 16 nM.
With `N#Cc1cccc(-c2ccc(C(=O)N[C@@H]3CCCN(c4cc(-c5ccnc(C(F)F)c5)n5ncnc(N)c45)C3)s2)c1` [Example 544, (R)-N-(1-(4-amino-7-(2-(difluoromethyl)pyridin-4-yl)pyrrolo[2,1-f][1,2,4]triazin-5-yl)piperidin-3-yl)-5-(3-cyanophenyl)thiophene-2-carboxamide] the figure was 5 nM; with `Nc1ncnn2c(C3=CCN(C(=O)C4CCOCC4)C3)cc(N3CCC[C@@H](NC(=O)c4ccc(Cl)s4)C3)c12` [Example 898, (R)-N-(1-(4-amino-7-(1-(tetrahydro-2H-pyran-4-carbony1)-2,5-dihydro-1H-pyrrol-3-yl)pyrrolo[2,1-f][1,2,4]triazin-5-y1)piperidin-3-y1)-5-chlorothiophene-2-carboxamide], 10 nM.
With `NC(=O)c1ccc(-c2cc(N3CCC[C@@H](NC(=O)c4sc5ccccc5c4OC4CNC4)C3)c3c(N)ncnn23)cn1` [Example 675, (R)-5-(4-amino-5-(3-(3-(azetidin-3-yloxy)benzo[b]thiophene-2-carboxamido)piperidin-1-yl)pyrrolo[2,1-f][1,2,4]triazin-7-yl)picolinamide] the figure was 25 nM; with `COC(=O)N1CC=C(c2cc(N3CCC[C@@H](NC(=O)c4sc(Cl)cc4OC4CCN(CC(F)F)CC4)C3)c3c(N)ncnn23)C1` [Example 566, methyl (R)-3-(4-amino-5-(3-(5-chloro-3-((1-(2,2-difluoroethyl)piperidin-4-yl)oxy)thiophene-2-carboxamido)piperidin-1-yl)pyrrolo[2,1-f][1,2,4]triazin-7-yl)-2,5-dihydro-1H-pyrrole-1-carboxylate], 12 nM; with `CC(=O)N1CC=C(c2cc(N3CCC[C@@H](NC(=O)c4sc(C)nc4OC4CCNCC4)C3)c3c(N)ncnn23)C1` [Example 357E, (R)—N-(1-(7-(1-acetyl-2,5-dihydro-1H-pyrrol-3-yl)-4-aminopyrrolo[2,1-f][1,2,4]triazin-5-yl)piperidin-3-yl)-2-methyl-4-(piperidin-4-yloxy)thiazole-5-carboxamide], 19 nM.
